{"source": "patent US6914045B2", "about": "“Glycopeptide antibiotics” (Wyeth Holdings Corporation, priority 2001, dated 2005)", "key": {"Enterococcus sp.": {"tested_on": "Enterococcus sp.", "assay": "in vitro antibacterial evaluation, MIC by broth dilution", "format": "cell-based", "conditions": "broth dilution, 18 hours at 35° C.", "outline": "(§1)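 Broth dilution per NCCLS standard M7-A2 in Muller-Hinton II […], with an inoculum of 5×10^5 CFU/mL and antibiotic spanning 64-0.06 μg/mL. The MIC is the lowest concentration that inhibits growth of the organism.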"}, "Escherichia coli": {"tested_on": "Escherichia coli", "assay": "in vitro antibacterial evaluation, MIC by broth dilution", "format": "cell-based", "conditions": "18 hours at 35° C.", "outline": "as §1"}, "Staphylococcus sp.": {"tested_on": "Staphylococcus sp.", "assay": "in vitro antibacterial evaluation, MIC by broth dilution", "format": "cell-based", "conditions": "broth dilution, 18 hours at 35° C.", "outline": "as §1"}, "Streptococcus sp.": {"tested_on": "Streptococcus sp.", "assay": "in vitro antibacterial evaluation, MIC by broth dilution", "format": "cell-based", "conditions": "broth dilution, 18 hours at 35° C.", "outline": "as §1"}, "[1]": {"tested_on": "Staphylococcus aureus-SMITH (GC 4543)", "assay": "acute lethal infection in mice", "format": "in vivo", "conditions": "acute lethal infection, female CD-1 mice, intraperitoneal challenge, intravenous 30 min. after infection, 7 day survival", "outline": "(§2)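 Survival at 7 days, pooled from three independent tests, yields ED50 values. Treatment is intravenous, 30 min after ip infection of female CD-1 mice, using an inoculum lethal to untreated controls within 24-48 hr.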"}, "[2]": {"tested_on": "Enterococcus faecalis (GC 6189)", "assay": "acute lethal infection in mice", "format": "in vivo", "conditions": "female CD-1 mice, intraperitoneal challenge, intravenous 30 min. after infection, 7 day survival", "outline": "as §2"}}}
{"smiles": "Cc1cccc(C2OCC3OC(OC4C(CO)OC(Oc5ccc(CC6NC(=O)C(C(C)c7ccccc7)NC(=O)CNC(=O)C(CO)NC(=O)C(C(O)C7CNC(=N)N7C7OC(CO)C(O)C(O)C7O)NC(=O)C(C(O)C7CNC(=N)N7)NC6=O)cc5)C(O)C4O)C(O)C(O)C3O2)c1", "note": "(stereo not drawn) [Example 135, Cyclo[glycyl-β-methylphenylalanyl-O-[4-O-[4,6-O-(3-methylbenzylidene)hexopyranosyl]-hexopyranosyl]tyrosyl-3-(2-iminoimidazolidin-4-yl)seryl-3-(3-hexopyranosyl-2-iminoimidazolidin-4-yl)serylseryl]]", "values": [{"measurement": "MIC Enterococcus avium (GC 4558)", "setting": "Enterococcus sp.; Enterococcus avium (GC 4558)", "result": 2, "unit": "µg/mL"}, {"measurement": "MIC Enterococcus faecalis (ATCC 29212)", "setting": "Enterococcus sp.; Enterococcus faecalis (ATCC 29212)", "result": 2, "unit": "µg/mL"}, {"measurement": "MIC Enterococcus faecalis (GC 2242)", "setting": "Enterococcus sp.; Enterococcus faecalis (GC 2242)", "result": 2, "unit": "µg/mL"}, {"measurement": "MIC Enterococcus faecalis (GC 2691)", "setting": "Enterococcus sp.; Enterococcus faecalis (GC 2691)", "result": 2, "unit": "µg/mL"}, {"measurement": "MIC Enterococcus faecalis (GC 3059)", "setting": "Enterococcus sp.; Enterococcus faecalis (GC 3059)", "result": 2, "unit": "µg/mL"}, {"measurement": "MIC Enterococcus faecalis (GC 4552)", "setting": "Enterococcus sp.; Enterococcus faecalis (GC 4552)", "result": 2, "unit": "µg/mL"}, {"measurement": "MIC Enterococcus faecalis (GC 4553)", "setting": "Enterococcus sp.; Enterococcus faecalis (GC 4553)", "result": 2, "unit": "µg/mL"}, {"measurement": "MIC Enterococcus faecalis (GC 4554)", "setting": "Enterococcus sp.; Enterococcus faecalis (GC 4554)", "result": 2, "unit": "µg/mL"}, {"measurement": "MIC Enterococcus faecalis (GC 6189)", "setting": "Enterococcus sp.; Enterococcus faecalis (GC 6189)", "result": 2, "unit": "µg/mL"}, {"measurement": "MIC Enterococcus faecium (GC 2243)", "setting": "Enterococcus sp.; Enterococcus faecium (GC 2243)", "result": 2, "unit": "µg/mL"}, {"measurement": "MIC Enterococcus faecium (GC 4556)", "setting": "Enterococcus sp.; Enterococcus faecium (GC 4556)", "result": 2, "unit": "µg/mL"}, {"measurement": "MIC Enterococcus faecium (GC 4557)", "setting": "Enterococcus sp.; Enterococcus faecium (GC 4557)", "result": 2, "unit": "µg/mL"}, {"measurement": "MIC Enterococcus faecalis (ATCC 29212)", "setting": "Enterococcus sp.; strain ATCC 29212", "result": 2, "unit": "µg/mL"}, {"measurement": "MIC Enterococcus faecalis (GC 2242)", "setting": "Enterococcus sp.; strain GC 2242", "result": 2, "unit": "µg/mL"}, {"measurement": "MIC Enterococcus faecium (GC 2243)", "setting": "Enterococcus sp.; strain GC 2243", "result": 2, "unit": "µg/mL"}, {"measurement": "MIC Enterococcus faecalis (GC 2691)", "setting": "Enterococcus sp.; strain GC 2691", "result": 2, "unit": "µg/mL"}, {"measurement": "MIC Enterococcus faecalis (GC 3059)", "setting": "Enterococcus sp.; strain GC 3059", "result": 2, "unit": "µg/mL"}, {"measurement": "MIC Enterococcus faecalis (GC 4552)", "setting": "Enterococcus sp.; strain GC 4552", "result": 2, "unit": "µg/mL"}, {"measurement": "MIC Enterococcus faecalis (GC 4553)", "setting": "Enterococcus sp.; strain GC 4553", "result": 2, "unit": "µg/mL"}, {"measurement": "MIC Enterococcus faecalis (GC 4554)", "setting": "Enterococcus sp.; strain GC 4554", "result": 2, "unit": "µg/mL"}, {"measurement": "MIC Enterococcus faecium (GC 4556)", "setting": "Enterococcus sp.; strain GC 4556", "result": 2, "unit": "µg/mL"}, {"measurement": "MIC Enterococcus faecium (GC 4557)", "setting": "Enterococcus sp.; strain GC 4557", "result": 2, "unit": "µg/mL"}, {"measurement": "MIC Enterococcus avium (GC 4558)", "setting": "Enterococcus sp.; strain GC 4558", "result": 2, "unit": "µg/mL"}, {"measurement": "MIC Enterococcus faecalis (GC 6189)", "setting": "Enterococcus sp.; strain GC 6189", "result": 2, "unit": "µg/mL"}, {"measurement": "MIC Escherichia coli (ATCC 25922)", "setting": "Escherichia coli; strain ATCC 25922", "result": 32, "unit": "µg/mL"}, {"measurement": "MIC Escherichia coli (GC 4559)", "setting": "Escherichia coli; strain GC 4559", "result": 32, "unit": "µg/mL"}, {"measurement": "MIC Escherichia coli (GC 4560)", "setting": "Escherichia coli; strain GC 4560", "result": 0.5, "unit": "µg/mL"}, {"measurement": "MIC Staphylococcus aureus (ATCC 29213)", "setting": "Staphylococcus sp.", "result": 1, "unit": "µg/mL"}, {"measurement": "MIC Staphylococcus aureus (GC 1131)", "setting": "Staphylococcus sp.", "result": 1, "unit": "µg/mL"}, {"measurement": "MIC Staphylococcus aureus (GC 3051)", "setting": "Staphylococcus sp.", "result": 1, "unit": "µg/mL"}, {"measurement": "MIC Staphylococcus aureus (GC 3053)", "setting": "Staphylococcus sp.", "result": 1, "unit": "µg/mL"}, {"measurement": "MIC Staphylococcus aureus (GC 4541)", "setting": "Staphylococcus sp.", "result": 1, "unit": "µg/mL"}, {"measurement": "MIC Staphylococcus aureus (GC 4542)", "setting": "Staphylococcus sp.", "result": 1, "unit": "µg/mL"}, {"measurement": "MIC Staphylococcus aureus (GC 4544)", "setting": "Staphylococcus sp.", "result": 2, "unit": "µg/mL"}, {"measurement": "MIC Staphylococcus aureus (GC 4545)", "setting": "Staphylococcus sp.", "result": 1, "unit": "µg/mL"}, {"measurement": "MIC Staphylococcus aureus (GC 1131)", "setting": "Staphylococcus sp.; inoculum 5×10^5 CFU/mL, strain GC 1131", "result": 1, "unit": "µg/mL"}, {"measurement": "MIC Staphylococcus aureus (ATCC 29213)", "setting": "Staphylococcus sp.; strain ATCC 29213", "result": 1, "unit": "µg/mL"}, {"measurement": "MIC Staphylococcus aureus (GC 3051)", "setting": "Staphylococcus sp.; strain GC 3051", "result": 1, "unit": "µg/mL"}, {"measurement": "MIC Staphylococcus aureus (GC 3053)", "setting": "Staphylococcus sp.; strain GC 3053", "result": 1, "unit": "µg/mL"}, {"measurement": "MIC Staphylococcus aureus (GC 4541)", "setting": "Staphylococcus sp.; strain GC 4541", "result": 1, "unit": "µg/mL"}, {"measurement": "MIC Staphylococcus aureus (GC 4542)", "setting": "Staphylococcus sp.; strain GC 4542", "result": 1, "unit": "µg/mL"}, {"measurement": "MIC Staphylococcus aureus-SMITH (GC 4543)", "setting": "Staphylococcus sp.; strain GC 4543", "result": 1, "unit": "µg/mL"}, {"measurement": "MIC Staphylococcus aureus (GC 4544)", "setting": "Staphylococcus sp.; strain GC 4544", "result": 2, "unit": "µg/mL"}, {"measurement": "MIC Staphylococcus aureus (GC 4545)", "setting": "Staphylococcus sp.; strain GC 4545", "result": 1, "unit": "µg/mL"}, {"measurement": "MIC Staphylococcus haemolyticus (GC 4546)", "setting": "Staphylococcus sp.; strain GC 4546", "result": 0.5, "unit": "µg/mL"}, {"measurement": "MIC Coagulase Negative Staphylococcus (GC 4547)", "setting": "Staphylococcus sp.; strain GC 4547", "result": 1, "unit": "µg/mL"}, {"measurement": "MIC Coagulase Negative Staphylococcus (GC 4548)", "setting": "Staphylococcus sp.; strain GC 4548", "result": 0.5, "unit": "µg/mL"}, {"measurement": "MIC Coagulase Negative Staphylococcus (GC 4549)", "setting": "Staphylococcus sp.; strain GC 4549", "result": 0.5, "unit": "µg/mL"}, {"measurement": "MIC Coagulase Negative Staphylococcus (GC 4551)", "setting": "Staphylococcus sp.; strain GC 4551", "result": 1, "unit": "µg/mL"}, {"measurement": "MIC Coagulase Negative Staphylococcus (GC 6257)", "setting": "Staphylococcus sp.; strain GC 6257", "result": 0.5, "unit": "µg/mL"}, {"measurement": "MIC Staphylococcus aureus-SMITH (GC 4543)", "setting": "Staphylococcus sp.; strain SMITH GC 4543", "result": 1, "unit": "µg/mL"}, {"measurement": "MIC Streptococcus agalactiae (GC 4564)", "setting": "Streptococcus sp.; Streptococcus agalactiae (GC 4564)", "result": 0.25, "unit": "µg/mL"}, {"measurement": "MIC Streptococcus pneumoniae (ATCC 6301)", "setting": "Streptococcus sp.; Streptococcus pneumoniae (ATCC 6301)", "result": "<0.06", "unit": "µg/mL"}, {"measurement": "MIC Streptococcus pneumoniae (GC 1894)", "setting": "Streptococcus sp.; Streptococcus pneumoniae (GC 1894)", "result": "<0.06", "unit": "µg/mL"}, {"measurement": "MIC Streptococcus pneumoniae (GC 4565)", "setting": "Streptococcus sp.; Streptococcus pneumoniae (GC 4565)", "result": "<0.06", "unit": "µg/mL"}, {"measurement": "MIC Streptococcus pyogenes (GC 4563)", "setting": "Streptococcus sp.; Streptococcus pyogenes (GC 4563)", "result": 0.25, "unit": "µg/mL"}, {"measurement": "MIC Streptococcus pneumoniae (ATCC 6301)", "setting": "Streptococcus sp.; strain ATCC 6301", "result": "<0.06", "unit": "µg/mL"}, {"measurement": "MIC Streptococcus pneumoniae (GC 1894)", "setting": "Streptococcus sp.; strain GC 1894", "result": "<0.06", "unit": "µg/mL"}, {"measurement": "MIC Streptococcus pyogenes (GC 4563)", "setting": "Streptococcus sp.; strain GC 4563", "result": 0.25, "unit": "µg/mL"}, {"measurement": "MIC Streptococcus agalactiae (GC 4564)", "setting": "Streptococcus sp.; strain GC 4564", "result": 0.25, "unit": "µg/mL"}, {"measurement": "MIC Streptococcus pneumoniae (GC 4565)", "setting": "Streptococcus sp.; strain GC 4565", "result": "<0.06", "unit": "µg/mL"}, {"measurement": "median effective dose (ED50), Staphylococcus aureus-SMITH (GC 4543)", "setting": "[1]", "result": 0.07, "unit": "mg/kg"}, {"measurement": "median effective dose (ED50), Enterococcus faecalis (GC 6189)", "setting": "[2]", "result": 0.26, "unit": "mg/kg"}]}
